Where “and” joins values, the source holds several entries; their conditions need not be identical. Equal entries are not always repeated.
Experiments:
[1] = Krafft point (Kp) determination; format: physicochemical; details: aqueous dispersion containing 2% by weight, temperature at which it becomes cloudy on cooling
Experimental: A composition of uniform turbidity can be recognised simply by visual observation of a sample which has been placed in a test tube and allowed to stand for 24 hours at ambient temperature. […] The melting point of particles of softening agent can be determined by placing in a hot stage microscope a sample of composition on a glass slide covered by a glass cover slip and observing the temperature at which melting of the particle occurs as a change in shape of the particles indicating deformation of liquid droplets when the cover slip is moved over the slide. The Krafft point (Kp) of the quaternary ammonium chloride can be determined by heating an aqueous dispersion containing 2% by weight of it to a temperature at which a transparent solution is obtained, cooling it, and observing the temperature at which it becomes cloudy. The clear point of the composition can be determined by heating a sample to 95° C.: lack of optical clarity at this temperature is taken as showing that the clear point is above 95° C.

[2] = Effective normality ratio range of quaternary ammonium salt to anionic surfactant for stable dispersions; format: physicochemical
Description: The ranges of figures in the table are the ranges of normality ratios expressed as quaternary ammonium salt to 1 of anionic surfactant.
There is no specific disclosure of the preparation of aqueous liquid concentrates in these prior publications of stable dispersions containing positively charged particles of quaternary ammonium softeners with single long-chain groups, and to prepare these it is necessary both to select a normality ratio within the operative range for the particular quaternary ammonium salt and anionic surfactant concerned and to employ a method of formulation which gives a homogeneous liquid phase before generating the complex-containing softener particles.

Compound | Krafft point (Kp) [1] | effective normality ratio range, quaternary ammonium salt to 1 of anionic surfactant ([2]; anionic surfactant: Sodium C15-C18 olefin sulphonate) | effective normality ratio range, quaternary ammonium salt to 1 of anionic surfactant ([2]; anionic surfactant: Sodium linear C10-C15 alkylbenzene sulphonate) | effective normality ratio range, quaternary ammonium salt to 1 of anionic surfactant ([2]; anionic surfactant: Sodium random secondary C13-C17 alkane sulphonate) | effective normality ratio range, quaternary ammonium salt to 1 of anionic surfactant ([2]; anionic surfactant: Sodium soap of tallow fatty acids) | Krafft point (Kp) ([1]; listed as behenoyl-hydroxypropyltrimethylammonium chloride of Preparation I) [°C] | effective normality ratio range, quaternary ammonium salt to 1 of anionic surfactant ([2]; anionic surfactant: Sodium stearate)
CCCCCCCCCCCCCCCCCC[N+](C)(C)C.[Cl-] [stearyltrimethylammonium chloride] | 11 °C | 1.4-1.8 | 1.5-3.0 | 1.3-2.0 | 1.1-1.6 |  | 
CCCCCCCCCCCCCCCCCCCCCC(=O)OCC(O)C[N+](C)(C)C.[Cl-] (stereo not shown) [3-behenoyloxy-2-hydroxypropyl trimethylammonium chloride] | 54 °C and 58 °C |  |  |  |  | 58 | 1.2-3.0
CCCCCCCCCCCCCCCCCCCCCC(=O)NCCC[N+](C)(C)C.[Cl-] [behenoylaminopropyl trimethylammonium chloride] | 60 °C |  |  |  |  |  | 
CCCCCCCCCCCCCCCC[N+](C)(C)Cc1ccccc1.[Cl-] [cetylbenzyldimethylammonium chloride] | 16 °C |  |  |  |  |  | 
